Assays:
Assay in all cases: drug sensitivity score (DSS) (DSS (dimensionless)); higher = more sensitive (stronger drug response)
FIMM-PDC1 = patient-derived ovarian cancer cells; settings: genetic perturbation: none (patient-derived cell culture)
How it was run: (§1)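 Cells, either patient-derived cultures or ovarian cancer cell lines given 100 ng/ml doxycycline for no less than three days to induce shRNA, went into 384-well plates at 1 000 – 1 500 per well over drugs pre-plated in five concentrations across a 10,000-fold range. The plates were held for three days at 37 °C with 5.0 % CO2. Cell viability was then taken from CellTiter-Glo luminescence on a PHERAstar FS. For each drug, a drug sensitivity score from its dose-response curve was obtained by a method described earlier.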

FIMM-PDC3 = patient-derived ovarian cancer cells; settings: genetic perturbation: none (patient-derived cell culture)
How it was run: as §1

FIMM-PDC4 = patient-derived ovarian cancer cells; settings: genetic perturbation: none (patient-derived cell culture)
How it was run: as §1

FIMM-PDC5 = patient-derived ovarian cancer cells; settings: genetic perturbation: none (patient-derived cell culture)
How it was run: as §1

FIMM-PDC6 = patient-derived ovarian cancer cells; settings: genetic perturbation: none (patient-derived cell culture)
How it was run: as §1

FIMM-PDC7 = patient-derived ovarian cancer cells; settings: genetic perturbation: none (patient-derived cell culture)
How it was run: as §1

JHOS2 = system: JHOS2
How it was run: as §1

Kuramochi = system: Kuramochi
How it was run: as §1

OVSAHO = system: OVSAHO
How it was run: as §1

[1] = genetic perturbation: DOX-induced PTK7 shRNA knockdown
[2] = genetic perturbation: DOX-induced control shRNA

Structure (SMILES) | drug sensitivity score (FIMM-PDC1) | drug sensitivity score (FIMM-PDC3) | drug sensitivity score (FIMM-PDC4) | drug sensitivity score (FIMM-PDC5) | drug sensitivity score (FIMM-PDC6) | drug sensitivity score (FIMM-PDC7) | drug sensitivity score (JHOS2; [1]) | drug sensitivity score (JHOS2; [2]) | drug sensitivity score (Kuramochi; [1]) | drug sensitivity score (Kuramochi; [2]) | drug sensitivity score (OVSAHO; [1]) | drug sensitivity score (OVSAHO; [2])
O=C(c1cc(Cc2n[nH]c(=O)c3ccccc23)ccc1F)N1CCN(C(=O)C2CC2)CC1 [Olaparib] | 3.45 | 1.5 | 3.8 | 6.1 | 9.2 | 6.1 | 6.6 | 3.2 | 3.35 | 2.6 | 3.5 | 2.5
COc1cccc2c1C(=O)c1c(O)c3c(c(O)c1C2=O)C[C@@](O)(C(=O)CO)C[C@@H]3O[C@H]1C[C@H](N)[C@H](O)[C@H](C)O1 [Doxorubicin] | 4.7 | 6.4 | 6.8 | 5.4 | 3.7 | 6.6 | 7 | 7.6 | 5.1 | 5 | 5.8 | 4.7
Nc1ccn([C@@H]2O[C@H](CO)[C@@H](O)C2(F)F)c(=O)n1 [Gemcitabine] | 5.15 | 9.4 | 9.8 | 21.8 | 14.2 | 13.3 | 19.5 | 7.1 | < 0 | 0.8 | 6.1 | 4
Cc1nc(Nc2ncc(C(=O)Nc3c(C)cccc3Cl)s2)cc(N2CCN(CCO)CC2)n1 [Dasatinib] | 6.05 | 13.9 | 19 | 17.8 | 10.7 | 3.2 | 8.7 | 10.1 | 17.9 | 9.5 | 14.5 | 15
CC1(COc2ccc3c(c2)ncn3-c2ccc3cccc(N4CCC(N)CC4)c3n2)COC1 [Crenolanib] | 3.55 | 5.3 | 5 | 8.5 | 4 | 4.7 | 8.5 | 5.7 | 3.65 | 2.9 | 3.8 | 3.7
COc1ccc(C[C@H](NC(=O)[C@H](C)NC(=O)CN2CCOCC2)C(=O)N[C@@H](Cc2ccccc2)C(=O)C2(C)CO2)cc1 (stereo in doubt) [ONX-0914] | 19.9 | 22.7 | 17.6 | 17.4 | 23.8 | 20.3 | 18.3 | 15.5 | 14.6 | 16.4 | 17.6 | 12.3
C[C@@H]1COC(Nc2ccc3ncnc(Nc4ccc(OCc5nccs5)c(Cl)c4)c3c2)=N1 [Varlitinib] | 1.1 | 8.6 | 9.5 | 12.6 | 5.2 | 6.9 | < 0 | < 0 | 0.05 | < 0 | 1.2 | < 0
CCN1C(=O)CNc2ncc(-c3ccc(-c4nc[nH]n4)nc3C)nc21 [CC-115] | 5.8 | 6.6 | 10 | 14 | 9.5 | 17.4 | 6.4 | 7.1 | 6.85 | 7.1 | 10 | 7.1
CC(C)n1nc(-c2ccc3oc(N)nc3c2)c2c(N)ncnc21 [Sapanisertib] | 7.5 | 7.6 | 15.4 | 21.2 | 16.3 | 16.3 | 6.9 | 9.3 | 10.1 | 10.7 | 14 | 11.6
Cn1c(=O)n(-c2ccc(C(C)(C)C#N)cc2)c2c3cc(-c4cnc5ccccc5c4)ccc3ncc21 [Dactolisib] | 10.1 | 11.1 | 17.2 | 21.6 | 19 | 17 | 10.3 | 14.1 | 11.7 | 11.9 | 11.8 | 13.8
CC[C@@H]1C(=O)N(C)c2cnc(Nc3ccc(C(=O)NC4CCN(C)CC4)cc3OC)nc2N1C1CCCC1 [BI 2536] | 6.05 | 7.5 | 6.1 | 19.4 | 0.1 | 3.5 | 16 | 4.6 | 10.7 | 3 | 5.9 | 8.8
O=C1CN2Cc3c(ccc(Cl)c3Cl)N=C2N1 [Anagrelide] | < 0 | 2.5 | 0.8 | < 0 | 3.5 | 12 | < 0 | 3.5 | < 0 | < 0 | < 0 | < 0
CNC(=O)c1cccc(-c2ccc3c(N4CCOC[C@@H]4C)nc(N4CCOC[C@@H]4C)nc3n2)c1 [Vistusertib] | 8.75 | 7.8 | 14.9 | 23.9 | 13 | 18.6 | 6.1 | 10.5 | 9.7 | 12.4 | 12.6 | 14.3
CCOC(=O)CCNc1cc(N2CCc3ccccc3CC2)nc(-c2ccccn2)n1 [GSK-J4] | 0.2 | < 0 | < 0 | < 0 | < 0 | 0.3 | 0.7 | 2.2 | 5.3 | 7.4 | < 0 | 11.7
COc1cc(C(=O)O)ccc1NC(=O)[C@@H]1N[C@@H](CC(C)(C)C)[C@](C#N)(c2ccc(Cl)cc2F)[C@H]1c1cccc(Cl)c1F [Idasanutlin] | 0.5 | 5.2 | 5 | 22.5 | 15.6 | 15.7 | < 0 | < 0 | 0.95 | < 0 | 1.1 | < 0
CC(C)C[C@H](NC(=O)[C@H](Cc1ccccc1)NC(=O)c1cnccn1)B(O)O [Bortezomib] | 29.1 | 30.6 | 28.8 | 27.4 | 31.8 | 31.9 | 25.7 | 23.6 | 16.3 | 20.1 | 24.2 | 11.6

From the supplement of paper PMC9386025
